Measured values reported in patent US20250195513A1, “DEGRADATION OF IRAK4 BY CONJUGATION OF IRAK4 INHIBITORS WITH E3 LIGASE LIGAND AND METHODS OF USE” (BeiGene, Ltd., priority 2022, published 2025).
Where two headings read alike, the source gives them in different places.

Biological target: T1, IRAK4 (Homo sapiens, UniProt Q9NWZ3)
T1 construct: endogenous in cells; host or cells: Karpas299
T1 sequence (Q9NWZ3 1-460): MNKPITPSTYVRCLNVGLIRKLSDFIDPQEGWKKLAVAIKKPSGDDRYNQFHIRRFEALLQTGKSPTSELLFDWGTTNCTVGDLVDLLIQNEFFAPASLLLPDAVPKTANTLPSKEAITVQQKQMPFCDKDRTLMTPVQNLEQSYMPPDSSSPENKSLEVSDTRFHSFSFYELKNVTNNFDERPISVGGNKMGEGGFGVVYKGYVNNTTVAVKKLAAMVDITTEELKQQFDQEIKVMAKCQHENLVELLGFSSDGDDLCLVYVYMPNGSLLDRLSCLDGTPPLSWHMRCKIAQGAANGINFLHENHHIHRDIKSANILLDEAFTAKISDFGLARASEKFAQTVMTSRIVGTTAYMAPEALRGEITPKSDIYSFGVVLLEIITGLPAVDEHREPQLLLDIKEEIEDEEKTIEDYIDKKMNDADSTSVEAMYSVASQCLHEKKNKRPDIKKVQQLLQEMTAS
Assay: IRAK4 Degradation Assay (Karpas299, HTRF/TR-FRET)
Format: cell-based
Conditions: Karpas-299 cells; for Dmax: maximum percentage of degradation
Method in brief: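 Karpas299 cells at 0.2 million per well were exposed to serially diluted compounds for 24 h or 5 h, then lysed. IRAK4 remaining in lysates was quantified by HTRF (665/620 nm) after overnight antibody incubation at room temperature. Percent degradation was fitted to a four-parameter curve to give IC50 (DC50).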

[1] = 5 h treatment, read-out: IRAK4 in Karpas-299 (5 h) Dmax (%)
[2] = 5 h treatment, read-out: IRAK4 in Karpas-299 (5 h) DC50
[3] = 24 h treatment, read-out: IRAK4 in Karpas-299 (24 h) Dmax (%)
[4] = 24 h treatment, read-out: IRAK4 in Karpas-299 (24 h) DC50

CC(C)(O)c1cc2nn(C3CCN(C4CCN(C(=O)C5CN(c6cc(F)c([C@H]7CCC(=O)NC7=O)c(F)c6)C5)CC4)CC3)cc2cc1NC(=O)c1cccc(C(F)(F)F)n1 [Example 160, (R)—N-(2-(1′-(1-(4-(2,6-dioxopiperidin-3-yl)-3,5-difluorophenyl)azetidine-3-carbonyl)-[1,4′-bipiperidin]-4-yl)-6-(2-hydroxypropan-2-yl)-2H-indazol-5-yl)-6-(trifluoromethyl)picolinamide] showed a Dmax [1] of 90%, a DC50 [2] of 4 nM and a Dmax [3] of 99%. The DC50 [4] was 0.4 nM.

CC(C)(O)c1cc2nn([C@H]3CC[C@H](N4CCN(C(=O)[C@@H]5CCN(c6cc(F)c([C@H]7CCC(=O)NC7=O)c(F)c6)C5)CC4)CC3)cc2cc1NC(=O)c1ccc2c(n1)C(F)(F)CCC2 [Example 172, N-(2-((1R,4r)-4-(4-((R)-1-(4-((R)-2,6-dioxopiperidin-3-yl)-3,5-difluorophenyl)pyrrolidine-3-carbonyl)piperazin-1-yl)cyclohexyl)-6-(2-hydroxypropan-2-yl)-2H-indazol-5-yl)-8,8-difluoro-5,6,7,8-tetrahydroquinoline-2-carboxamide] gave a Dmax [3] of 94% and a DC50 [4] of 1.6 nM.

O=C1CC[C@H](c2c(F)cc(N3CC(CN4CCN([C@H]5CC[C@H](n6cc(NC(=O)c7csc(-c8cn[nH]c8)n7)c(C(F)F)n6)CC5)CC4)C3)cc2F)C(=O)N1 [Example 435, N-(3-(difluoromethyl)-1-((1r,4r)-4-(4-((1-(4-((R)-2,6-dioxopiperidin-3-yl)-3,5-difluorophenyl)azetidin-3-yl)methyl)piperazin-1-yl)cyclohexyl)-1H-pyrazol-4-yl)-2-(1H-pyrazol-4-yl)thiazole-4-carboxamide] was tested, and the Dmax [3] was 100% and the DC50 [4] was 0.4 nM.

O=C1CC[C@H](c2c(F)cc(N3CC(C(=O)N4CCN([C@H]5CC[C@H](n6cc(NC(=O)c7cnn(-c8ccnc(NCC(F)(F)F)c8)n7)c(C(F)F)n6)CC5)CC4)C3)cc2F)C(=O)N1 [Example 51, N-(3-(difluoromethyl)-1-((1r,4r)-4-(4-(1-(4-((R)-2,6-dioxopiperidin-3-yl)-3,5-difluorophenyl)azetidine-3-carbonyl)piperazin-1-yl)cyclohexyl)-1H-pyrazol-4-yl)-2-(2-((2,2,2-trifluoroethyl)amino)pyridin-4-yl)-2H-1,2,3-triazole-4-carboxamide] showed a Dmax [1] of 93%, a DC50 [2] of 4.8 nM and a Dmax [3] of 96%. For the same compound, the DC50 [4] was 1.2 nM.

In the case of NC(=O)c1nn([C@H]2CC[C@H](N3CCN(C(=O)C4CN(c5cc(F)c([C@H]6CCC(=O)NC6=O)c(F)c5)C4)CC3)CC2)cc1NC(=O)c1coc(-c2ccnc(NCC(F)(F)F)c2)n1 [Example 11, N-(3-carbamoyl-1-((1r,4r)-4-(4-(1-(4-((R)-2,6-dioxopiperidin-3-yl)-3,5-difluorophenyl)azetidine-3-carbonyl)piperazin-1-yl)cyclohexyl)-1H-pyrazol-4-yl)-2-(2-((2,2,2-trifluoroethyl)amino)pyridin-4-yl)oxazole-4-carboxamide], the Dmax [1] was 94%, the DC50 [2] was 2.4 nM and the Dmax [3] was 97%. For the same compound, the DC50 [4] was 1.6 nM.

For N#Cc1cnc2c(C(=O)Nc3ccc4nn([C@H]5CC[C@H](N6CCN(C7CN(c8cc(F)c([C@H]9CCC(=O)NC9=O)c(F)c8)C7)CC6)CC5)cc4c3)cnn2c1 [Example 424, 6-cyano-N-(2-((1R,4r)-4-(4-(1-(4-((R)-2,6-dioxopiperidin-3-yl)-3,5-difluorophenyl)azetidin-3-yl)piperazin-1-yl)cyclohexyl)-2H-indazol-5-yl)pyrazolo[1,5-a]pyrimidine-3-carboxamide], the Dmax [3] was 42% and the DC50 [4] was greater than 1000 nM.

CC(C)(O)c1cc2nn([C@H]3CC[C@H](N4CCN(c5ccc(CCC(=O)NC6CCC(=O)NC6=O)cc5)CC4)CC3)cc2cc1NC(=O)c1ccc2cc(C#N)cnn12 (some centres unmarked) [Example 440, 3-cyano-N-(2-((1r,4r)-4-(4-(4-(3-((2,6-dioxopiperidin-3-yl)amino)-3-oxopropyl)phenyl)piperazin-1-yl)cyclohexyl)-6-(2-hydroxypropan-2-yl)-2H-indazol-5-yl)pyrrolo[1,2-b]pyridazine-7-carboxamide] showed a Dmax [3] of 80% and a DC50 [4] of 183 nM.

Compound CC(C)(O)c1cc2nn(C34CCC(N5CCN(C(=O)C6CN(c7cc(F)c([C@H]8CCC(=O)NC8=O)c(F)c7)C6)CC5)(CC3)CC4)cc2cc1NC(=O)c1ccc2cc(C#N)cnn12 [Example 149, (R)-3-cyano-N-(2-(4-(4-(1-(4-(2,6-dioxopiperidin-3-yl)-3,5-difluorophenyl)azetidine-3-carbonyl)piperazin-1-yl)bicyclo[2.2.2]octan-1-yl)-6-(2-hydroxypropan-2-yl)-2H-indazol-5-yl)pyrrolo[1,2-b]pyridazine-7-carboxamide] has a Dmax [3] of 97% and a DC50 [4] of 0.3 nM.

Work on O=C1CC[C@H](c2c(F)cc(N3CC[C@@H](C(=O)N4CCN([C@H]5CC[C@H](n6cc(NC(=O)c7coc(-c8ccnc(NCC9CC9)c8)n7)c(C(F)F)n6)CC5)C(=O)C4)C3)cc2F)C(=O)N1 [Example 101, 2-(2-((cyclopropylmethyl)amino)pyridin-4-yl)-N-(3-(difluoromethyl)-1-((1R,4r)-4-(4-((R)-1-(4-((R)-2,6-dioxopiperidin-3-yl)-3,5-difluorophenyl)pyrrolidine-3-carbonyl)-2-oxopiperazin-1-yl)cyclohexyl)-1H-pyrazol-4-yl)oxazole-4-carboxamide] yielded a Dmax [3] of 97% and a DC50 [4] of 1.2 nM.

In the case of O=C1CCN(c2ccc(N3CC[C@H](C(=O)N4CCN([C@H]5CC[C@H](n6cc(NC(=O)c7coc(-c8ccnc(NCC(F)(F)F)c8)n7)c(C(F)F)n6)CC5)CC4)C3)cc2)C(=O)N1 [Example 15, N-(3-(difluoromethyl)-1-((1S,4r)-4-(4-((S)-1-(4-(2,4-dioxotetrahydropyrimidin-1(2H)-yl)phenyl)pyrrolidine-3-carbonyl)piperazin-1-yl)cyclohexyl)-1H-pyrazol-4-yl)-2-(2-((2,2,2-trifluoroethyl)amino)pyridin-4-yl)oxazole-4-carboxamide], the Dmax [3] was 30% and the DC50 [4] was greater than 10000 nM.

With CC(C)(O)c1cc2nn(C3CCN(C4CCN(C(=O)[C@@H]5CCN(c6cc(F)c([C@H]7CCC(=O)NC7=O)c(F)c6)C5)CC4)CC3)cc2cc1NC(=O)c1cccn(C2CC2)c1=O [Example 118, 1-cyclopropyl-N-(2-(1′-((R)-1-(4-((R)-2,6-dioxopiperidin-3-yl)-3,5-difluorophenyl)pyrrolidine-3-carbonyl)-[1,4′-bipiperidin]-4-yl)-6-(2-hydroxypropan-2-yl)-2H-indazol-5-yl)-2-oxo-1,2-dihydropyridine-3-carboxamide] the Dmax [3] was 85% and the DC50 [4] was 2.8 nM.

With O=C1CC[C@H](c2c(F)cc(N3CC(C(=O)N4CCN([C@H]5CC[C@H](n6cc7cc(NC(=O)c8cccc(C(F)(F)F)n8)c(C(=O)N[C@H]8C[C@H](CO)C8)cc7n6)CC5)CC4)C3)cc2F)C(=O)N1 [Example 167, 2-((1r,4R)-4-(4-(1-(4-((R)-2,6-dioxopiperidin-3-yl)-3,5-difluorophenyl)azetidine-3-carbonyl)piperazin-1-yl)cyclohexyl)-N-((1r,3R)-3-(hydroxymethyl)cyclobutyl)-5-(6-(trifluoromethyl)picolinamido)-2H-indazole-6-carboxamide] the Dmax [1] was 94%, the DC50 [2] was 5.3 nM and the Dmax [3] was 99%. For the same compound, the DC50 [4] was 0.8 nM.
